The subject of data set [1] is HDAC5 nuclear export. The data set can be described thus: PMA-induced GFP-HDAC5 nuclear export in Cos7 cells (fluorescence microscopy). It is filed as cell-based. The settings on record: for PMA-induced HDAC5 nuclear export: GFP-HDAC5-WT, pretreatment, then PMA for 3 hours. The procedure:
(§1) A, B, Cos7 cells were co-transfected with expression vectors encoding GFP-tagged HDAC5 (GFP-HDAC5) and constitutively active protein kinases as indicated, and then exposed to phorbol-12-myristate-13-acetate (PMA, […]) for 3 hours. […] A-F, The cells were fixed and the subcellular localization of GFP-HDAC5 was visualized by fluorescence microscopy.
C, D, Cos7 cells were transfected with GFP-HDAC5-WT or GFP-HDAC5-S280D and then exposed to PMA for 3 hours. GFP-HDAC5-S280D but not GFP-HDAC5-WT was resistant to PMA-induced nuclear export. *, p<0.05 versus without PMA, n=4. E, F, Cos7 cells were transfected with Flag-HDAC5-WT or Flag-HDAC5-S280A mutant, and then pretreated with forskolin followed with the exposure to PMA. Phosphorylation of HDAC5 in cell lysates was analyzed by immunoblotting with phospho-specific HDAC5 antibodies that recognize the HDAC5 phosphorylated at Ser259 (E) and Ser498 (F). G, H, Cos7 cells were transfected with Flag-HDAC5-WT, Flag-HDAC5-S280A or Flag-HDAC5-S280D, and then pretreated with forskolin, followed with the exposure to PMA. Coimmunoprecipitation of Flag-HDAC5 in cell lysates and then immunoblotting with anti-14-3-3 beta and anti-Flag antibodies in immunoprecipitates were performed. 14-3-3 in total cell lysates (5% of the input) was determined by immunoblotting with anti-14-3-3 antibodies. Representative blots are shown, n=3.
The cells were fixed and GFP-HDAC5 localization was analyzed by fluorescence microscopy.
For analysis of GFP-HDAC5 subcellular localization in NRVMs and Cos7 cells, cells were plated in the presence of adenovirus (multiplicity of infection, 50 to 100) on 35 mm dishes containing DMEM plus 10% FBS as previously described (Vega R B, et al. (2004) Protein kinases C and D mediate agonist-dependent cardiac hypertrophy through nuclear export of histone deacetylase 5. Mol Cell Biol 24(19):8374-8385).
(§2) After 24 hour culture, cells were maintained in serum-free DMEM medium for additional 24 hours, and then exposed to various inducers or inhibitors (for 30 minutes) prior to PE or PMA stimulation for indicated times. The cells were washed with PBS and fixed with 3.7% formaldehyde in PBS. Images were captured at a magnification of ×60, using a fluorescence microscope (Olympus BX51) equipped with a digital camera and Spot software system (RT Color Diagnostic Instruments). For analysis of the myocyte marker, sarcomeric α-actinin antibody and DAPI in neonatal cardiomyocyte, immunocytochemistry were performed according to a standard protocol. For subcellular localization of endogenous HDAC5 in cardiomyocyes, we fixed cells and used the detergent Saponin (Sigma, 84510) to make cells permeable, and then performed immunocytochemistry with anti-HDAC5 antibody (Santa Cruz, sc-11419). For subcellular localization of HDAC5, total around 200 cells were counted in each condition. For cardiomyocyte size, total myocyte surface areas were calculated using NIH Image J software, and expressed as the average of 100 randomly selected cells per condition.

Data set [2] concerns HDAC5 nuclear export. Kind of data set: PE-induced HDAC5 nuclear export in neonatal rat ventricular cardiomyocytes (NRVMs). In kind it is cell-based. As to the method: as §1
The cells were fixed and GFP-HDAC5 localization was analyzed by fluorescence microscopy. α-actinin was detected by immunofluorescence using an antibody against α-actinin and a fluorescein-conjugated secondary antibody. The nuclei were stained with DAPI.
The cells were fixed and GFP-HDAC5 localization was analyzed by fluorescence microscopy. α-actinin was detected by immunofluorescence using an antibody against α-actinin and a fluorescein-conjugated secondary antibody. The nuclei were stained with DAPI. B, PKA expression in cell lysates were determined by Western blot using PKA antibody.
The cells were fixed and endogenous HDAC5 localization was analyzed by fluorescence microscopy. HDAC5 and α-actinin was detected by immunocytochemistry with antibody against HDAC5 and α-actinin.
The cells were fixed and GFP-HDAC5 subcellular localization was analyzed by fluorescence microscopy and stained with an α-actinin antibody and DAPI.
Cos7 cells were grown in Dulbecco's Modified Eagle's Medium (DMEM) supplemented with fetal bovine serum (10%), 1-glutamine and penicillin/streptomycin. Primary cultures of neonatal rat cardiac ventricular myocytes (NRVMs) from 1- to 2-day-old Sprague-Dawley rats (Charles River Laboratories) were prepared. In brief, NRVMs were dispersed from the ventricles by digestion with collagenase type II (Worthington). Cells were cultured in Dulbecco's modified Eagle's medium (DMEM) supplemented with 1,000 mg/L D-glucose, L-glutamine, and 110 mg/L sodium pyruvate (GIBCO), fetal bovine serum (10%), and penicillin/streptomycin at 37° C. in a 5% CO2 humidified atmosphere for 2-3 days. For inducer or inhibitor studies, cells were pretreated with various inducers or inhibitors for 30 min in serum-free medium. Primary cultures of adult rat cardiomyocytes were prepared from 200-250g male Sprague-Dawley rats. Briefly, rats were anesthetized, hearts excised and placed in Krebs buffer and perfused and digested with endotoxin-free collagenase II (Worthington). This protocol typically yielded approximately 4×10^6 cells per heart, with ˜85% surviving, rod-shaped Ca2+-tolerant cells. Myocytes were allowed to attach to 20 μg/ml laminin coated plates in Modified Eagle Medium (MEM) containing 2.5% FBS, 25 mmol/L HEPES, 5 mmol/L taurine, 2 mmol/L carnitine, 2 mmol/L creatinine, 100 IU/ml penicillin, and 100 μg/ml streptomycin for 2 hrs before replacing with serum-free MEM containing 25 mmol/L HEPES, 5 mmol/L taurine, 2 mmol/L carnitine, 2 mmol/L creatinine, 100 IU/ml penicillin, and 100 μg/ml streptomycin.
Adenoviruses encoding Flag-tagged HDAC5 wild-type (WT), GFP-tagged HDAC5-WT, and YFP-tagged HDAC7-WT were generated as described previously (Ha C H, et al. (2008) Protein Kinase D-dependent Phosphorylation and Nuclear Export of Histone Deacetylase 5 Mediates Vascular Endothelial Growth Factor-induced Gene Expression and Angiogenesis. J Biol Chem 283(21):14590-14599; Ha C H et al. (2008) VEGF stimulates HDAC7 phosphorylation and cytoplasmic accumulation modulating matrix metalloproteinase expression and angiogenesis. Arterioscler Thromb Vasc Biol 28(10):1782-1788). Adenovirus expressing GFP-tagged HDAC5-S280A mutant, GFP-tagged HDAC5-S280D mutant and Flag-tagged HDAC5-S280A mutant were generated by using ViraPower Adenoviral Expression System (Invitrogen) according to the manufacturer's protocol. Adenovirus containing β-galactosidase (LacZ) or GFP was used as a control. […]

For data set [3], the system named is HDAC7 nuclear export. The data set can be described thus: PMA-induced YFP-HDAC7 nuclear export in Cos7 cells. In kind it is cell-based.
Method: Transient transfection of plasmid DNA was performed using lipofectamine 2000 (Invitrogene, Carlsbad, Calif.) and 0.5 μg of the indicated plasmids.
Data set [4] relates to ANF, β-MHC, α-SMA expression. Kind of data set: RT-PCR of cardiac fetal gene expression in NRVMs. In kind it is cell-based, rat. The settings on record: NRVMs with GFP-HDAC5-WT; PE 24 hours. As to the method:
The mRNA was extracted from the cell lysates and then RT-PCR with the primers for ANF, β-MHC, α-SMA, and GADPH (internal control) was performed. *, p<0.05 versus PE+Ad-GFP; #, p<0.05 versus PE+GFP-HDAC5-WT, n=4.
The mRNA was extracted from the cell lysates, and quantitative RT-PCR with the primers for ANF and GADPH (internal control) were performed as described in the Examples. Quantitative data are shown (n=4).
Total RNA was isolated from NRVM using TRIzol (Invitrogen Corp.). Firststrand cDNA was synthesized with the SuperScript Preamplification System (Gibco-BRL). cDNA was amplified by PCR for 30 cycle (Applied Biosystem) as described previously (4, 5). Rat GAPDH served as an internal control. The following oligonucleotide primers were used in this study: rat ANF, sense 5′-[…]-3′ (SEQ ID NO:11) and antisense 5′-[…]-3′(SEQ ID NO:12) rat α-SMA, sense 5′-[…]-3′ (SEQ ID NO:13) and antisense 5′-[…]-3′ (SEQ ID NO:14); rat β-MHC (myosin heavy chain), sense 5′-[…]-3′ (SEQ ID NO:15) and antisense 5′-[…]-3′ (SEQ ID NO:16); rat GAPDH, sense 5′-[…]-3′ (SEQ ID NO:17) and antisense 5′-[…]-3′ (SEQ ID NO:18). Experiments were repeated three times.

The test system of data set [5] is NRVMs. Kind of data set: Cardiomyocyte hypertrophy (cell size, α-actinin immunostaining) in NRVMs. In kind it is cell-based, rat.
Source text: A-H, Cardiomyocyte size was detected by immunostaining with anti-α-actinin antibody. […] The cells were fixed and analyzed for GFP-HDAC5 localization, α-actinin staining and nuclear DAPI staining *, p<0.05 versus without PE; #, p<0.05 versus with PE alone. I, Schematic model for PKA-dependent regulation of HDAC5 subcellular localization and gene transcription.
Cardiomyocyte protein marker α-actinin was detected by immunofluorescence using antibody against α-actinin and fluorescein-conjugated secondary antibody.
as §2

The subject of data set [6] is T1, GST-HDAC5-WT (273-286).
T1 sequence: KVAERRSSPLLRRK

The subject of data set [7] is Myc-HDAC5 AA 1-360.
Setting [8] is: NRVMs with GFP-HDAC5-WT, PE 24 hours.

No end group written: not given here.

Myc-HDAC5 AA 1-360, sequence (chain, as listed by the source): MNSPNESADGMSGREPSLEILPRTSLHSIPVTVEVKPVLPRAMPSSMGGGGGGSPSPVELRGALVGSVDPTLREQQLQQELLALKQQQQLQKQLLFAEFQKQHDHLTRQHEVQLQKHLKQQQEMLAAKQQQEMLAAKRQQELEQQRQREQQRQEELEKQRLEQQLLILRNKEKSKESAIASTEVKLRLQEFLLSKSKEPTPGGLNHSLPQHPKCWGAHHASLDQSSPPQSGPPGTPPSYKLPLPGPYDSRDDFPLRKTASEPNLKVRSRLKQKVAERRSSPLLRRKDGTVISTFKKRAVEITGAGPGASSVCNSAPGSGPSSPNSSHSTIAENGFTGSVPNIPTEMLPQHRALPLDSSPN

As to `CCCCCC[C@@H]([C@@H](C)O)n1cnc2c(N)ncnc21` (racemic) [EHNA, erythro-9-(2-hydroxy-3-nonyl)adenine], the “PMA-induced HDAC5 nuclear export” value in data set [1] was “inhibited HDAC5 nuclear export”.
`CC(C)NCC(O)c1ccc(O)c(O)c1` (stereo not shown) [isoproterenol]: the “PE-stimulated HDAC5 nuclear export” value in data set [2] (NRVMs, adenoviral GFP-HDAC5, 30 min pretreatment, PE 10 μM 3 hours) is on record as “markedly inhibited PE-stimulated HDAC5 nuclear export”. In addition, the “PMA-induced HDAC5 nuclear export” value in data set [1] is “inhibited HDAC5 nuclear export”.
On to `C=C[C@@]1(C)CC(=O)[C@]2(O)[C@@]3(C)[C@@H](O)CCC(C)(C)[C@@H]3[C@H](O)[C@H](OC(C)=O)[C@@]2(C)O1` [forskolin], for which, in data set [3], the “PMA-induced nuclear export of YFP-HDAC7 (WT)” value was “no inhibitory effect”.
Consider `CNC[C@H](O)c1cccc(O)c1` [PE, R-(−)-Phenylephrine], for which, in data set [2] (setting [8]), the “HDAC5 localization (stimulus alone)” value is reported as “HDAC5 nuclear export”. Besides, in data set [4], the “expression of ANF, β-MHC and α-SMA (stimulus alone)” value is “significantly increased expression of ANF, β-MHC and α-SMA”. For the same compound, the “cell size (stimulus alone)” value in data set [5] (setting [8]) is on record as “increased cell size”.
Consider `CC(C)Cn1c(=O)n(C)c(=O)c2[nH]cnc21` [IBMX, 3-isobutyl-1-methylxanthine], for which the “PMA-induced HDAC5 nuclear export” value in data set [1] is recorded as “inhibited HDAC5 nuclear export”.
Same read-out and setting: the result for `CCCC(=O)Nc1nc2c(ncn2[C@@H]2O[C@@H]3COP(=O)(O)O[C@H]3[C@H]2OC(=O)CCC)c(=O)[nH]1` [cGMP, DibutyrylcGMP] reads “did not block HDAC5 nuclear export”; that for `CN(C(=O)CCCOc1ccc2[nH]c(=O)ccc2c1)C1CCCCC1` [cilostamide], “did not block HDAC5 nuclear export”.
On to `COc1ccc(C2CNC(=O)C2)cc1OC1CCCC1` (stereo not shown) [rolipram], for which, in data set [5] (NRVMs, forskolin 10 μM, cAMP 500 μM, Rolipram 10 μM 30 min, PE or Angiotensin II 24 hours), the “PE/Angiotensin II-induced cardiomyocyte hypertrophy” value is listed as “inhibit PE/Angiotensin II-induced cardiomyocyte hypertrophy”. Moreover, the “PMA-induced HDAC5 nuclear export” value in data set [1] is “inhibited HDAC5 nuclear export”.
For “PKA Inhibitor 14-22 Amide (SGRTGRRNA-NH2; UniProt P61925 14-22, looked up, fragment) [PKI]”, the “effect on the inhibitory effects of cAMP on PE-induced HDAC5 nuclear export” value in data set [2] (NRVMs, GFP-HDAC5, PKA inhibition, then cAMP, PE 3 hours) is on record as “abolished the inhibitory effects of cAMP on PE-induced HDAC5 nuclear export”. Also, in data set [1] (GFP-HDAC5, PKI pretreatment, then forskolin or cAMP, then PMA 3 hours), the “effect on the inhibition of HDAC5 nuclear export by forskolin and cAMP” value was “abolished the inhibition of forskolin and cAMP on HDAC5 nuclear export”.
In the case of “purified catalytic subunit of protein kinase A (PKA-CA, Calbiochem)”, the “in vitro kinase assay, 32P autoradiography” value in data set [6] was “recombinant PKA-CA phosphorylated the GST-tagged peptide of HDAC5-WT”; in data set [7] it was “the similar phosphorylation by PKA-CA in an in vitro kinase assay (FIG. 14) was also detected”.

For the origin of these results see patent US20130156753A1 (UNIVERSITY OF ROCHESTER, priority 2010, published 2013).
